This is an account of results in patent US20050153938A1, “Polyphosphonate derivatives for toothpaste compositions” (Universite D'Angers, priority 2002, published 2005).

Structures are written as SMILES.

The nature of test [1]: Tests of efficiency of polyphosphonate compounds for preventing bonding of proteins. The note with it: compared with diphosphonic esters, sulfonates, phosphates, carboxylates and diphosphates. Here is the method:
One particular difficulty lies in identification of compounds with a particularly efficient behaviour for the required application.
This TMADP compound has been synthesised in a single step using hydroxyethylidene biphosphonic acid (HEDP) and glycidyltrimethylammonium chloride. The reaction was done in DMSO previously conserved on a molecular sieve. After dissolution of HEDP (2 g; 14.5×10^−3 mol) at 50° C. in 30 ml of DMSO, the epoxyde (2.2 g; 14.5×10^−3 mol) is added and the temperature is increased to 110° C. for 24 hours. The DMSO is then evaporated at low pressure and the raw product is dissolved in a minimum amount of distilled water. The TMADP product is then chromatographed on a cation exchanger resin (DOWEX 50WX8-20/50 Mesh, H+form). The column is eluted with distilled water and the pure product is collected at a pH of between 3.0 and 3.5.

The nature of test [2]: Model of protection of a stainless steel plate against bonding of proteins. From the text: A sufficient coverage quantity of TMADP molecules on this model is […] per nm^2 of plaque surface area.

Take `C[N+](C)(C)CCCCCC(P(=O)(O)O)P(=O)(O)O` [6-trimethylammoniohexyl-1,1-bisphosphonic acid]: in test [1], the “efficiency of the compound (result in words)” value is given as “particularly conclusive results”.

For `CC(OCC(O)C[N+](C)(C)C)(P(=O)(O)O)P(=O)(O)O.[Cl-]` (stereo not shown) [TMADP, 2,2-diphosphono-5-hydroxy-3-oxa-6-hexyltrimethylammonium (TMADP) chloride], the contamination by proteins result is recorded as “less than 10%” in test [2] (TMADP concentration 2.86×10^−4 mol.I-1, 10 minutes incubation of the plaque (stainless steel plate)) and “about 15%” in test [2] (TMADP concentration about 1.4×10^−4 mol.I-1, stainless steel plate). For the same compound, the “efficiency of the compound (result in words)” value in test [1] is “particularly conclusive results”.
